Reference: ChEMBL document CHEMBL6114968, “Discovery of BW710 as a potent, selective and orally bioavailable fibroblast growth factor receptor 2 (FGFR2) inhibitor” (Eur J Med Chem, 2025)

Tests used:
BaF3 [1] = assay: Antiproliferative activity against mouse BaF3 cells expressing FGFR2 incubated for 72 hrs by CCK-8 assay; assay type: functional, cell-based; conditions: BaF3, 72 h
BaF3 [2] = assay: Antiproliferative activity against mouse BaF3 cells expressing FGFR1 incubated for 72 hrs by CCK-8 assay; assay type: functional, cell-based; conditions: BaF3, 72 h
BaF3 [3] = assay: Antiproliferative activity against mouse BaF3 cells incubated for 72 hrs by CCK-8 assay; conditions: BaF3, 72 h
[4] = target: Fibroblast growth factor receptor 1 (Homo sapiens) (UniProt P11362); assay: Inhibition of FGFR1 (unknown origin) at 1 uM by KINOMEscan analysis relative to control
Sequence of Fibroblast growth factor receptor 1 (Homo sapiens) (P11362 22-822 limits assumed): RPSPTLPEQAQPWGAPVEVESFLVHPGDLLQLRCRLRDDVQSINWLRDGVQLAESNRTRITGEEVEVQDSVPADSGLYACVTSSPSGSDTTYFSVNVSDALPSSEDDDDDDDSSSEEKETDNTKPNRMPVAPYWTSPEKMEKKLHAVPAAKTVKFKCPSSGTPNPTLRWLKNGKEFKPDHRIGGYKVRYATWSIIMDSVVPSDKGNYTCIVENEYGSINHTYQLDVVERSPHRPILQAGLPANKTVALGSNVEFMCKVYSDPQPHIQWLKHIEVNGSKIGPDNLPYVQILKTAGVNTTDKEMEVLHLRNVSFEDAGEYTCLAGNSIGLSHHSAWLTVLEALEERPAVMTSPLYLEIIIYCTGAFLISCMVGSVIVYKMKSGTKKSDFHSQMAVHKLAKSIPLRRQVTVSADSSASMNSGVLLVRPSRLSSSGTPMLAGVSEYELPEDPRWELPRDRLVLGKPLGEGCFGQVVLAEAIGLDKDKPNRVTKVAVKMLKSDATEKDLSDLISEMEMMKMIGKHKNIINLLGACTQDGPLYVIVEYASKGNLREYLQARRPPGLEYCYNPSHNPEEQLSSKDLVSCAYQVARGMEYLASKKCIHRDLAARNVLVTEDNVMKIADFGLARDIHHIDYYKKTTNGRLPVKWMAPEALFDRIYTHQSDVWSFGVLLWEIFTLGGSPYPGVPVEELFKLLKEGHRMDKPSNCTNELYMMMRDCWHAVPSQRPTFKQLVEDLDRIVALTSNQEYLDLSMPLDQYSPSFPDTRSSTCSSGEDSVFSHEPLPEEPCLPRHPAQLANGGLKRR

[5] = target: Fibroblast growth factor receptor 2 (Homo sapiens) (UniProt P21802); assay: Inhibition of FGFR2 (unknown origin) at 1 uM by KINOMEscan analysis relative to control
Sequence of Fibroblast growth factor receptor 2 (Homo sapiens) (P21802 22-821 limits assumed): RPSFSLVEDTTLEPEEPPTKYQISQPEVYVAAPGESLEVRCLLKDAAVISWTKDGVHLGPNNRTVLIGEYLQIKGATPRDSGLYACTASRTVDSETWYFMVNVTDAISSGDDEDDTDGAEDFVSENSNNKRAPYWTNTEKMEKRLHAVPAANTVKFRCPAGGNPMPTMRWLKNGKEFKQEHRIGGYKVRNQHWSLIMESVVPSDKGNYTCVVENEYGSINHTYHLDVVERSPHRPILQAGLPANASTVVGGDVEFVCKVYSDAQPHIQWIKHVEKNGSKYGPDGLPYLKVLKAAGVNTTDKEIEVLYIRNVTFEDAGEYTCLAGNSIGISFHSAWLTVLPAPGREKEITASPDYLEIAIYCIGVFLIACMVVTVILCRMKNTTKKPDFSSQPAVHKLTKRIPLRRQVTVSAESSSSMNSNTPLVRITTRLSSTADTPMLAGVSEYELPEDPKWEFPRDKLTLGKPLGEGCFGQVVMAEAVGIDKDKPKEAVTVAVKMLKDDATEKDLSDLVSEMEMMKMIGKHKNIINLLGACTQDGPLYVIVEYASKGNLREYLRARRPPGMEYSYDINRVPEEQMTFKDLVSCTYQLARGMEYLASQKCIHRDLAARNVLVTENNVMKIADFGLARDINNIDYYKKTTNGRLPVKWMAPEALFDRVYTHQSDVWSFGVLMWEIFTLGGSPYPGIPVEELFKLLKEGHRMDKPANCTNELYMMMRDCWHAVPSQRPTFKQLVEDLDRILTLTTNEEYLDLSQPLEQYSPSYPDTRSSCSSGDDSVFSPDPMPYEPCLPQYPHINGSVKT

[6] = target: Fibroblast growth factor receptor 3 (Homo sapiens) (UniProt P22607); assay: Inhibition of FGFR3 (unknown origin) at 1 uM by KINOMEscan analysis relative to control
Sequence of Fibroblast growth factor receptor 3 (Homo sapiens) (P22607 23-806 limits assumed): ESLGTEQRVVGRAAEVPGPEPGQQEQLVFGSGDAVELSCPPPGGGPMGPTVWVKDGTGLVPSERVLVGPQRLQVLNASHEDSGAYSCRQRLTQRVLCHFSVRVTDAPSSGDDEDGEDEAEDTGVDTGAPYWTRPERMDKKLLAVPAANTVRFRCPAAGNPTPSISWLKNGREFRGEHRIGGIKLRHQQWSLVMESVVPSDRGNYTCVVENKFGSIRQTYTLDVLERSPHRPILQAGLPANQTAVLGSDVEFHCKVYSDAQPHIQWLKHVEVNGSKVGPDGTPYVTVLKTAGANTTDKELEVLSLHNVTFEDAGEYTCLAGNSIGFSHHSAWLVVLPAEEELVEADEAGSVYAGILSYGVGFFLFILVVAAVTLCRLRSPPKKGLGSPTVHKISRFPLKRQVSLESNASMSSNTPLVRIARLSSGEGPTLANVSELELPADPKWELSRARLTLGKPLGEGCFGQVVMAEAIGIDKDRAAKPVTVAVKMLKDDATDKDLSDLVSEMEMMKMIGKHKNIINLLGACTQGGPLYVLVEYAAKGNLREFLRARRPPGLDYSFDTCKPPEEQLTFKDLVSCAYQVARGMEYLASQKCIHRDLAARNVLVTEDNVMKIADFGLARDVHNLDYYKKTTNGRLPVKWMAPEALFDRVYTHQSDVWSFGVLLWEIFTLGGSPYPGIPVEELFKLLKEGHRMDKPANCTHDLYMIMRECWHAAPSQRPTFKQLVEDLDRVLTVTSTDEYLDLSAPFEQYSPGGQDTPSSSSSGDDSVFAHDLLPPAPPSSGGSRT

[7] = target: Fibroblast growth factor receptor 4 (Homo sapiens) (UniProt P22455); assay: Inhibition of FGFR4 (unknown origin) at 1 uM by KINOMEscan analysis relative to control
Sequence of Fibroblast growth factor receptor 4 (Homo sapiens) (P22455 22-802 limits assumed): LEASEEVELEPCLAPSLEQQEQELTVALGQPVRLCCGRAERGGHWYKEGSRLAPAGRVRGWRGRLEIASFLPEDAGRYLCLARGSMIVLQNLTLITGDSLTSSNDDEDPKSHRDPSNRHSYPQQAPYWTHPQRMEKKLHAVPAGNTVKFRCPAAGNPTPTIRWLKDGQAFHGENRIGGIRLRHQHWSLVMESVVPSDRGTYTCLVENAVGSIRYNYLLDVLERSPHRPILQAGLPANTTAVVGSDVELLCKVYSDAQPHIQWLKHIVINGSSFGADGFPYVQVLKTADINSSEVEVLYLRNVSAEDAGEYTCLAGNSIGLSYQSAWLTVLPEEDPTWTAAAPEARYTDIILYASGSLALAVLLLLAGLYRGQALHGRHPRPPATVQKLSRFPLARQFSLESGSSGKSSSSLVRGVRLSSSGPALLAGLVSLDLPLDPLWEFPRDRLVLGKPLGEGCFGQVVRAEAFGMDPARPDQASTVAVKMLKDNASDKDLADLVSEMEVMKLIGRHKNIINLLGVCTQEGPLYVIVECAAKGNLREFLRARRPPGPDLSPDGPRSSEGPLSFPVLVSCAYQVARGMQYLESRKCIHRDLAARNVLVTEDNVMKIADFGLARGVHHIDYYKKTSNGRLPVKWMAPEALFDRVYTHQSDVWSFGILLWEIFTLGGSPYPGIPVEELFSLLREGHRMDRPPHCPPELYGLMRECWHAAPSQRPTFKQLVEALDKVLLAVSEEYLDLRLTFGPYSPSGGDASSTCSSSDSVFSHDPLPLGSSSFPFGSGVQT

[8] = target: Fibroblast growth factor receptor 2 (Homo sapiens) (UniProt P21802); assay: Inhibition of FGFR2 phosphorylation in human SNU-16 cells incubated for 1 hr by Western blot analysis; assay type: cell-based; conditions: dose 0.5-100 nM
[9] = target: Fibroblast growth factor receptor 2 (Homo sapiens) (UniProt P21802); assay: Inhibition of FGFR2 in human SNU-16 cells assessed as decrease in FRS2-alpha phosphorylation at Tyr436 residue incubated for 1 hr by Western blot analysis; assay type: cell-based; conditions: dose 0.5-100 nM
[10] = target: Fibroblast growth factor receptor 2 (Homo sapiens) (UniProt P21802); assay: Inhibition of FGFR2 in human SNU-16 cells assessed as decrease in Akt phosphorylation at Ser473 residue incubated for 1 hr by Western blot analysis; assay type: cell-based; conditions: dose 0.5-100 nM
[11] = target: Fibroblast growth factor receptor 2 (Homo sapiens) (UniProt P21802); assay: Inhibition of FGFR2 in human SNU-16 cells assessed as decrease in ERK1/2 phosphorylation incubated for 1 hr by Western blot analysis; assay type: cell-based; conditions: dose 0.5-100 nM
[12] = Antiproliferative activity against FGFR2 amplified human SNU-16 cells measured after 72 hrs by CCK-8 assay; assay type: functional, cell-based; conditions: SNU-16, 72 h
[13] = Antiproliferative activity against FGFR2 amplified human KATO III stomach cancer cell line measured after 72 hrs by CCK-8 assay; assay type: functional, cell-based
A204 = assay: Antiproliferative activity against FGFR1 amplified human A204 cells measured after 72 hrs by CCK-8 assay; assay type: functional, cell-based; conditions: A204, 72 h
[14] = Antiproliferative activity against human RT-112 cells harboring FGFR3-TACC3 measured after 72 hrs by CCK-8 assay; assay type: functional, cell-based; conditions: RT-112, 72 h
MDA-MB-453 = assay: Antiproliferative activity against human MDA-MB-453 cells harboring FGFR4-Y367C measured after 72 hrs by CCK-8 assay; assay type: functional, cell-based; conditions: MDA-MB-453, 72 h
[15] = Half life in mouse at 1 mg/kg, iv; assay type: ADME, organism-based; conditions: in vivo
[16] = Cmax in mouse at 1 mg/kg, iv; assay type: ADME, organism-based; conditions: in vivo
[17] = Clearance in mouse at 1 mg/kg, iv; assay type: ADME, organism-based; conditions: in vivo
[18] = AUC(0 to t) in mouse at 1 mg/kg, iv; assay type: ADME, organism-based; conditions: in vivo
[19] = MRT(0 to t) in mouse at 1 mg/kg, iv; assay type: ADME, organism-based; conditions: in vivo
[20] = Half life in mouse at 10 mg/kg, po; assay type: ADME, organism-based; conditions: in vivo
[21] = Cmax in mouse at 10 mg/kg, po; assay type: ADME, organism-based; conditions: in vivo
[22] = AUC(0 to t) in mouse at 10 mg/kg, po; assay type: ADME, organism-based; conditions: in vivo
[23] = MRT(0 to t) in mouse at 10 mg/kg, po; assay type: ADME, organism-based; conditions: in vivo
[24] = Oral bioavailability in mouse at 10 mg/kg; assay type: ADME, organism-based; conditions: in vivo

C=CC(=O)Nc1ccc(-c2c(-c3ccc(S4(=O)=NCCC4)cc3)c3c(N)ncnc3n2C)cc1 (stereo unspecified)
IC50 (BaF3 [1]): 12 nM
IC50 (BaF3 [2]): > 1000 nM
IC50 (BaF3 [3]): > 1000 nM

C=CC(=O)Nc1ccc(-c2c(-c3ccc(S(=N)(=O)C4CCC4)cc3)c3c(N)ncnc3n2C)cc1 (stereo unspecified)
IC50 (BaF3 [1]): 45.8 nM
IC50 (BaF3 [2]): > 1000 nM
IC50 (BaF3 [3]): > 1000 nM

C=CC(=O)Nc1ccc(-c2c(-c3ccc(S4(=O)=NCCCCC45CCC5)cc3)c3c(N)ncnc3n2C)cc1 (stereo unspecified)
IC50 (BaF3 [1]): 1.5 nM
IC50 (BaF3 [2]): 176 nM
IC50 (BaF3 [3]): > 1000 nM

C=C(C)C(=O)Nc1ccc(-c2c(-c3ccc(S4(=O)=NCCCCC4)cc3)c3c(N)ncnc3n2C)c(F)c1 (stereo unspecified)
IC50 (BaF3 [1]): 2.8 nM
IC50 (BaF3 [2]): > 1000 nM
IC50 (BaF3 [3]): > 1000 nM
inhibition [4]: 14.7%
inhibition [5]: 101%
inhibition [6]: 13.7%
inhibition [7]: 5.85%
inhibition [8]: Dose-dependent-effect
inhibition [9]: Dose-dependent-effect
inhibition [10]: Dose-dependent-effect
inhibition [11]: Dose-dependent-effect
IC50 [12]: 6.7 nM
IC50 [13]: 12.6 nM
IC50 (A204): 2380 nM
IC50 [14]: 782 nM
IC50 (MDA-MB-453): 2850 nM
half-life [15]: 52.2 min
Cmax [16]: 4700 ng/mL
clearance [17]: 13.2 mL/min/kg
AUC(0-t) [18]: 1270 ng·h/mL
MRT last [19]: 28.8 min
half-life [20]: 64.8 min
Cmax [21]: 2910 ng/mL
AUC(0-t) [22]: 3650 ng·h/mL
MRT last [23]: 1.46 h
bioavailability [24]: 29%

C=CC(=O)Nc1ccc(-c2c(-c3ccc(S4(=O)=NCCCCC45CC5)cc3)c3c(N)ncnc3n2C)cc1 (stereo unspecified)
IC50 (BaF3 [1]): 3.6 nM
IC50 (BaF3 [2]): 385 nM
IC50 (BaF3 [3]): > 1000 nM

C=CC(=O)Nc1ccc(-c2c(-c3ccc(S(C)(=O)=NC)cc3)c3c(N)ncnc3n2C)cc1 (stereo unspecified)
IC50 (BaF3 [1]): 335 nM
IC50 (BaF3 [2]): > 1000 nM
IC50 (BaF3 [3]): > 1000 nM

C=CC(=O)Nc1ccc(-c2c(-c3ccc(S(C)(=O)=NC4CC4)cc3)c3c(N)ncnc3n2C)cc1 (stereo unspecified)
IC50 (BaF3 [1]): 108 nM
IC50 (BaF3 [2]): > 1000 nM
IC50 (BaF3 [3]): > 1000 nM

C=CC(=O)Nc1ccc(-c2c(-c3ccc(S(=N)(=O)CC(C)C)cc3)c3c(N)ncnc3n2C)cc1 (stereo unspecified)
IC50 (BaF3 [1]): 12.3 nM
IC50 (BaF3 [2]): > 1000 nM
IC50 (BaF3 [3]): > 1000 nM

C=CC(=O)Nc1ccc(-c2c(-c3ccc(S(=N)(=O)C4CCCCC4)cc3)c3c(N)ncnc3n2C)cc1 (stereo unspecified)
IC50 (BaF3 [1]): 8.9 nM
IC50 (BaF3 [2]): 787 nM
IC50 (BaF3 [3]): > 1000 nM

CCC(=O)Nc1ccc(-c2c(-c3ccc(S4(=O)=NCCCCC4)cc3)c3c(N)ncnc3n2C)c(F)c1 (stereo unspecified)
IC50 (BaF3 [1]): > 1000 nM
IC50 (BaF3 [2]): > 1000 nM
IC50 (BaF3 [3]): > 1000 nM
IC50 [12]: 1280 nM
IC50 [13]: 2210 nM
IC50 (A204): > 10000 nM
IC50 [14]: > 10000 nM
IC50 (MDA-MB-453): 4180 nM

C=CC(=O)Nc1ccc(-c2c(-c3ccc(S(C)(=O)=NCCC)cc3)c3c(N)ncnc3n2C)cc1 (stereo unspecified)
IC50 (BaF3 [1]): 90.1 nM
IC50 (BaF3 [2]): 841 nM
IC50 (BaF3 [3]): > 1000 nM

C=C(C)C(=O)Nc1ccc(-c2c(-c3ccc(S4(=O)=NCCCCC4)cc3)c3c(N)ncnc3n2C)cc1F (stereo unspecified)
IC50 (BaF3 [1]): 106 nM
IC50 (BaF3 [2]): > 1000 nM
IC50 (BaF3 [3]): > 1000 nM

CCN1C(=O)N(c2c(F)c(OC)cc(OC)c2F)Cc2cnc3[nH]c(CN4CCOCC4)cc3c21 [PEMIGATINIB]
IC50 (BaF3 [1]): 2 nM
IC50 (BaF3 [2]): 19.8 nM
IC50 (BaF3 [3]): > 1000 nM
IC50 [12]: 1.1 nM
IC50 [13]: 1.8 nM
IC50 (A204): 29.2 nM
IC50 [14]: 10.9 nM
IC50 (MDA-MB-453): 150 nM

C=CC(=O)Nc1ccc(-c2c(-c3ccc(S(C)(=O)=NCC)cc3)c3c(N)ncnc3n2C)cc1 (stereo unspecified)
IC50 (BaF3 [1]): 153 nM
IC50 (BaF3 [2]): > 1000 nM
IC50 (BaF3 [3]): > 1000 nM

C=CC(=O)Nc1ccc(-c2c(-c3ccc(S(=O)(CCC)=NC)cc3)c3c(N)ncnc3n2C)cc1 (stereo unspecified)
IC50 (BaF3 [1]): 35.5 nM
IC50 (BaF3 [2]): > 1000 nM
IC50 (BaF3 [3]): > 1000 nM

C=CC(=O)Nc1ccc(-c2c(-c3ccc(S(=N)(=O)C4CCCCCC4)cc3)c3c(N)ncnc3n2C)cc1 (stereo unspecified)
IC50 (BaF3 [1]): 3.7 nM
IC50 (BaF3 [2]): 336 nM
IC50 (BaF3 [3]): > 1000 nM
